Data on two compounds can be found in ChEMBL document CHEMBL6103570, “An endoplasmic reticulum and lipid droplets dual-localized strategy to develop small molecular photosensitizers that induce ferroptosis during photodynamic therapy” (Eur J Med Chem, 2025).

Series [1] in a line: Darktoxicity in human MCF7 cells assessed as cell viability preincubated for 24 hrs followed by incubation under dark condition for 24 hrs by MTT assay. The series is classed as toxicity, cell-based. Conditions: time 48 hrs. Background: Tetrazolium assays rely on reduction of a dye to a coloured formazan, in cell work by metabolically active cells.
Series [2] in a line: Darktoxicity in human MDA-MB-231 cells assessed as cell viability preincubated for 24 hrs followed by incubation under dark condition for 24 hrs by MTT assay. The class given is toxicity, cell-based. Conditions: time 48 hrs.
The nature of series [3]: Phototoxicity in human MDA-MB-231 cells assessed as cell viability preincubated for 24 hrs followed by white light irradiation at 20 mW/cm2 for 10 mins and measured after 24 hrs by MTT assay. The series is classed as functional, cell-based. The settings on record: MDA-MB-231, light or radiation study.
Series [4] can be described thus: Photo selectivity index, ratio of CC50 for darktoxicity in human MCF7 cells assessed as cell viability preincubated for 24 hrs followed by incubation under dark condition for 24 hrs by MTT assay to IC50 for phototoxicity in human MCF7 cells assessed as cell viability preincubated for 24 hrs followed by white light irradiation at 20 mW/cm2 for 10 mins and measured after 24 hrs by MTT assay. The settings on record: read-out: Ratio CC50/IC50. The series is classed as toxicity, cell-based.

Series [5] can be described thus: Phototoxicity in mouse 4T1 cells assessed as cell viability preincubated for 24 hrs followed by white light irradiation at 20 mW/cm2 for 10 mins and measured after 24 hrs by MTT assay. The class given is functional, cell-based. Conditions: 4T1, light or radiation study.
The nature of series [6]: Darktoxicity in mouse 4T1 cells assessed as cell viability preincubated for 24 hrs followed by incubation under dark condition for 24 hrs by MTT assay. The series is classed as toxicity, cell-based. Conditions: time 48 hrs.
Series [7] in a line: Photo selectivity index, ratio of CC50 for darktoxicity in mouse 4T1 cells assessed as cell viability preincubated for 24 hrs followed by incubation under dark condition for 24 hrs by MTT assay to IC50 for phototoxicity in mouse 4T1 cells assessed as cell viability preincubated for 24 hrs followed by white light irradiation at 20 mW/cm2 for 10 mins and measured after 24 hrs by MTT assay. The series is classed as toxicity, cell-based. The settings on record: read-out: Ratio CC50/IC50.

A short description of series [8]: Phototoxicity in human Bcap37 cells assessed as cell viability preincubated for 24 hrs followed by white light irradiation at 20 mW/cm2 for 10 mins and measured after 24 hrs by MTT assay. The series is classed as functional, cell-based. The settings on record: Bcap37, light or radiation study.
Series [9] in a line: Photo selectivity index, ratio of CC50 for darktoxicity in human Bcap37 cells assessed as cell viability preincubated for 24 hrs followed by incubation under dark condition for 24 hrs by MTT assay to IC50 for phototoxicity in human Bcap37 cells assessed as cell viability preincubated for 24 hrs followed by white light irradiation at 20 mW/cm2 for 10 mins and measured after 24 hrs by MTT assay. The class given is toxicity, cell-based. Conditions: read-out: Ratio CC50/IC50.

Series [10] can be described thus: Darktoxicity in human Bcap37 cells assessed as cell viability preincubated for 24 hrs followed by incubation under dark condition for 24 hrs by MTT assay. The series is classed as toxicity, cell-based. The settings on record: time 48 hrs.
A short description of series [11]: Photo selectivity index, ratio of CC50 for darktoxicity in human MDA-MB-231 cells assessed as cell viability preincubated for 24 hrs followed by incubation under dark condition for 24 hrs by MTT assay to IC50 for phototoxicity in human MDA-MB-231 cells assessed as cell viability preincubated for 24 hrs followed by white light irradiation at 20 mW/cm2 for 10 mins and measured after 24 hrs by MTT assay. The class given is toxicity, cell-based. Conditions: read-out: Ratio CC50/IC50.

A short description of series [12]: Phototoxicity in human MCF7 cells assessed as cell viability preincubated for 24 hrs followed by white light irradiation at 20 mW/cm2 for 10 mins and measured after 24 hrs by MTT assay. The series is classed as functional, cell-based. The settings on record: MCF7, light or radiation study.
For series [13], the system named is 4T1. Put plainly: Induction of ferroptosis in mouse 4T1 cells assessed as increase in MDA level at 15 nM preincubated in dark condition for 24 hrs followed by 20mW/cm2 white light irradiation for 10 mins and measured after 6 hrs by colorimetric assay. The class given is functional, cell-based. The settings on record: time 1810.0 min.
Series [14] is described as follows: Potency index, ratio of IC50 for Chlorin e6 to IC50 for test compound for phototoxicity in human MDA-MB-231 cells assessed as cell viability preincubated for 24 hrs followed by white light irradiation at 20 mW/cm2 for 10 mins and measured after 24 hrs by MTT assay. The class given is functional. Conditions: time 48 hrs.
Series [15] relates to MDA-MB-231. Put plainly: Upregulation of Hmox1 mRNA expression in human MDA-MB-231 cells at 10 nM preincubated for 24 hrs followed by […] white light irradiation for 10 mins and measured after 12 hrs by qRT-PCR analysis. The class given is functional, cell-based. The settings on record: time 2170.0 min.
The test system of series [16] is MDA-MB-231. The series can be described thus: Upregulation of Chac1 mRNA expression in human MDA-MB-231 cells at 10 nM preincubated for 24 hrs followed by […] white light irradiation for 10 mins and measured after 12 hrs by qRT-PCR analysis. Conditions: time 2170.0 min. The series is classed as functional, cell-based. Background: In qPCR the cycle at which signal appears reflects the starting amount.

Series [17] relates to 4T1. Put plainly: Induction of intracellular ROS generation in mouse 4T1 cells assessed as increase in green fluorescence intensity at 5 to 60 nM incubated in dark for 24 hrs followed by compound removal and measured after 5 mins under 20 mW/cm2H2 white light irradiation by H2-DCFDA staining based fluorescence assay. The settings on record: dose 5-60 nM. The series is classed as functional, cell-based.

A short description of series [18]: Photosensitizing ability of the compound in NaOH assessed as fluorescence quantum yield. The class given is functional.
Series [19] is described as follows: Drug localization in endoplasmic reticulum of mouse 4T1 cells assessed as increase in green fluorescence at 2 uM incubated for 12 hrs by confocal scanning microscopy analysis. The class given is ADME, subcellular. Conditions: 4t1, 12 h.
The test system of series [20] is 4T1. The series can be described thus: Induction of ferroptosis in mouse 4T1 cells assessed as increase in intracellular lipid peroxidation accumulation by measuring increase in green fluorescence at 30 nM preincubated for 24 hrs followed by 30 mW/cm2 green light irradiation for 4 mins by C11 BODIPY 581/591 staining based analysis. The series is classed as functional, cell-based. The settings on record: time 1444.0 min.

In series [21] the test system is 4T1. The series can be described thus: Induction of ferroptosis in mouse 4T1 cells assessed as cell viability at 30 nM preincubated for 24 hrs followed by white light irradiation at 20 mW/cm2 and measured after 24 hrs in presence of 3-MA by MTT assay. The settings on record: time 48.0 hrs. The class given is functional, cell-based.
Series [22] in a line: Drug localization in Lipid droplet of mouse 4T1 cells assessed as increase in green fluorescence by measuring pearson correlation coefficient at 2 uM incubated for 12 hrs by confocal scanning microscopy analysis. The series is classed as ADME, subcellular. The settings on record: 4t1, 12 h.
The test system of series [23] is 4T1. The series can be described thus: Induction of ferroptosis in mouse 4T1 cells assessed as cell viability at 30 nM preincubated for 24 hrs followed by white light irradiation at 20 mW/cm2 and measured after 24 hrs in presence of Nec-1 by MTT assay. The series is classed as functional, cell-based. The settings on record: time 48.0 hrs.
In series [24] the test system is 4T1. The series can be described thus: Upregulation of Chac1 mRNA expression in mouse 4T1 cells at 10 nM under light irradiation by KEGG analysis. The series is classed as functional, cell-based.
The test system of series [25] is 4T1. The series can be described thus: Upregulation of Hmox1 mRNA expression in mouse 4T1 cells at 10 nM preincubated for 24 hrs followed by […] white light irradiation for 10 mins and measured after 12 hrs by qRT-PCR analysis. Conditions: time 2170.0 min. The class given is functional, cell-based.
Series [26] can be described thus: Drug localization in Lipid droplet of mouse 4T1 cells assessed as increase in green fluorescence at 2 uM incubated for 12 hrs by confocal scanning microscopy analysis. The class given is ADME, subcellular. Conditions: 4t1, 12 h.
Series [27] concerns 4T1. Put plainly: Induction of intracellular ROS generation in mouse 4T1 cells assessed as increase in green fluorescence intensity at 5 to 60 nM incubated in dark for 24 hrs followed by compound removal and measured after 5 mins under 20 mW/cm2H2 white light irradiation in presence of NaN3 by H2-DCFDA staining based fluorescence assay. The series is classed as functional, cell-based. Conditions: dose 5-60 nM.

The subject of series [28] is 4T1. Put plainly: Induction of ferroptosis in mouse 4T1 cells assessed as decrease in intracellular GSH level at 15 nM preincubated in dark condition for 24 hrs followed by 20mW/cm2 white light irradiation for 10 mins and measured after 12 hrs by colorimetric assay. The class given is functional, cell-based. The settings on record: time 2170.0 min.
Series [29] deals with 4T1. The series can be described thus: Upregulation of Hmox1 mRNA expression in mouse 4T1 cells at 10 nM under light irradiation by KEGG analysis. The class given is functional, cell-based.
Series [30] can be described thus: Photosensitizing ability of the compound in EtOH assessed as singlet oxygen quantum yield at 100 nM under 520nm 30 mW/cm2 light irradiation by DPBF reagent based analysis. The class given is functional.
Series [31] relates to 4T1. The series can be described thus: Upregulation of Acsl4 mRNA expression in mouse 4T1 cells at 10 nM under light irradiation by KEGG analysis. The class given is functional, cell-based.
The subject of series [32] is 4T1. Put plainly: Upregulation of […] mRNA expression in mouse 4T1 cells at 10 nM preincubated for 24 hrs followed by […] white light irradiation for 10 mins and measured after 12 hrs by qRT-PCR analysis. The settings on record: time 2170.0 min. The class given is functional, cell-based.
Series [33] has as its system 4T1. The series can be described thus: Induction of ferroptosis in mouse 4T1 cells assessed as cell viability at 30 nM preincubated for 24 hrs followed by white light irradiation at 20 mW/cm2 and measured after 24 hrs in presence of Z-VAD-FMK by MTT assay. The series is classed as functional, cell-based. The settings on record: time 48.0 hrs.
The test system of series [34] is 4T1. The series can be described thus: Induction of ferroptosis in mouse 4T1 cells assessed as cell viability at 30 nM preincubated for 24 hrs followed by white light irradiation at 20 mW/cm2 and measured after 24 hrs in presence of Fer-1 by MTT assay. The series is classed as functional, cell-based. The settings on record: time 48.0 hrs.
In series [35] the test system is 4T1. The series can be described thus: Induction of ferroptosis in mouse 4T1 cells assessed as increase in intracellular lipid peroxidation accumulation by measuring increase in green fluorescence at 30 nM incubated under dark condition for 24 hrs by C11 BODIPY 581/591 staining based analysis. The class given is functional, cell-based.
The subject of series [36] is 4T1. Put plainly: Upregulation of Chac1 mRNA expression in mouse 4T1 cells at 10 nM preincubated for 24 hrs followed by […] white light irradiation for 10 mins and measured after 12 hrs by qRT-PCR analysis. The class given is functional, cell-based. Conditions: time 2170.0 min.
In series [37] the test system is MDA-MB-231. Put plainly: Upregulation of Acsl4 mRNA expression in human MDA-MB-231 cells at 10 nM preincubated for 24 hrs followed by […] white light irradiation for 10 mins and measured after 12 hrs by qRT-PCR analysis. The class given is functional, cell-based. The settings on record: time 2170.0 min.

Molecules are shown by their SMILES. Active and inactive are the calls of the source. No cut-off for these calls is given here.

The term CC50 denotes the concentration at which the toxic effect on the cells reaches its halfway point. The term IC50 denotes the concentration that gives 50% inhibition. As for `C=Cc1c(C)c2cc3nc(c(CC(=O)O)c4[nH]c(cc5nc(cc1[nH]2)C(C)=C5CC)c(C)c4C(=O)O)[C@@H](CCC(=O)O)[C@@H]3C` [CHLORIN E6], the CC50 at 24 h in [1], in series [2], in series [6] and in [10] was greater than 50000 nM each time. Also, the IC50 in [3] is 1170 nM; in [5] it was 862 nM; in [8], 1270 nM; in series [12], 850 nM. Besides, the selectivity ratio in series [4] is greater than 59; in [7], greater than 58; in series [9], greater than 39; in [11] it was greater than 43.

`CC1=C(I)C(C)=[N+]2C1=C(c1nccc3c1[nH]c1ccccc13)c1c(C)c(I)c(C)n1[B-]2(F)F`: the result with 4T1 [13], in the series on MDA-MB-231 [15], in the series on MDA-MB-231 [16], in the series with 4T1 [17], in the series with 4T1 [20] and in the series with 4T1 [24] was Active. For the same compound, the outcome in the series on 4T1 [25], with 4T1 [28], in the series with 4T1 [29], with 4T1 [31], with 4T1 [32] and in the series with 4T1 [34] was Active. In addition, the outcome in the series with 4T1 [36] and with MDA-MB-231 [37] was Active. Moreover, the “Ratio IC50” value in series [14] worked out at 38. The CC50 at 24 h in series [1] was greater than 100000 nM; in series [2], 27600 nM; in [10] it was greater than 100000 nM. For the same compound, the Activity in [18] stood at 0.19; in [22] it was 0.84; in series [30], 0.73. In addition, the Drug uptake entry in [19] and in series [26] was “Active” throughout. In addition, the outcome with 4T1 [21], in the series on 4T1 [23], in the series with 4T1 [27], in the series with 4T1 [33] and in the series on 4T1 [35] was inactive. Also, the IC50 came out at 33 nM in [3], 23 nM in [5], 26 nM in [8] and 41 nM in series [12]. For the same compound, the selectivity ratio in series [4] is greater than 2430; in [7], 18; in series [9] it was greater than 3880; in series [11], 835.
